# Results: patent publication US8581605B2 (priority 2006, dated 2013)
# Format: biochemical
# Settings: pH 7.4
substance,measurement,value
α-hemolysin [αHL],single-channel conductance of the αHL channel,~900 pS
